Laboratory results: patent US5262537A, “Derivatives of 4,5,6,7-tetrahydroimidazo-[4,5-c]pyridinyl-6-carboxylic acid” (priority 1993, dated 1993)
Counter-ions that a name gives are not always drawn. Like-named read-outs stand apart in the source and are kept apart here.

Key:
Ferret = assay: Cisplatin Ferret Assay--Antiemetic Screening; assay type: in vivo, Male ferrets; settings: Mustela putorius, iv, 4 h; for inhibition in vivo at 0.1 mg/kg: read-out: Ferret Cisplatin Test % Prot, 0.1 mg/Kg; for ED50: i.v., emetic episodes over four hours, read-out: Ferret Cisplatin Test ED50
Description: Male ferrets (castrated, descented, 1-2 kg) were purchased from Triple F Farms, Syre, Pa. Ferrets were housed four in a cage with a 12 hour light cycle and were fed ad libitum with Ralston Purina Cat Chow. Each ferret was used unfasted for the assay after a minimum of a 24 hour acclimation time in animal facility.
Ferret Preparation. Each ferret was anesthetized with 5% isoflurane-O2in a 20 gallon aquarium for 2 to 5 minutes. After removal of the anesthetic gas, the animals were removed and weighed. Injections were made into the dorsal front paw vein using a tourniquet and a 1 ml tuberculin syringe with a 25 g needle while the animal was maintained under anesthesia using a small nose cone delivering 5% isoflurane-O2. Cisplatin was injected using a 3 ml or 5 ml syringe in the opposite paw from the study compound or saline. Recovery time from anaesthesia was 5 to 8 minutes.
Drug Preparation. Cisplatin bulk powder was weighed and dissolved in normal saline at 75° C. to provide a 5 mg/ml solution (90 mg was placed in a scintillation vial and qs with 18 ml saline). The solution was stirred and maintained at 40° C. until ready for use. The study drug was weighed and dissolved in normal saline at room temperature to provide a 1 mg/ml solution (10 mg was placed in a scintillation vial and qs with 10 ml saline). Suspensions were heated to 40° C. to bring the study compound into solution. Compounds not soluble under these conditions were not assayed.
Assay. Cisplatin was injected i.v. at 10 mg/kg into twelve anesthetized ferrets daily at time zero. Normal saline (0.5 ml) or the study compound (0.1 or 1.0 mg/kg) was injected 30 minutes later in groups of three anesthetized ferrets. Order of treatment and treatment dose was selected at random, with the remaining treatment dose assayed in the next experiment.
Experimental Observations and Data Collection. Ferrets were viewed individually. The time and number of emetic episodes were recorded for four hours. Zero time was equivalent to the time of cisplatin injection. […] Retches were recorded but not counted. The total number of episodes for each of the four groups of three ferrets (+/-S.E.) was averaged and the effect of treatment (% protection) was calculated as the percent reduction of emetic episodes compared to controls. [formula]
Percent protection values were determined from experimental controls. Experimental controls were those obtained from the day of the experiment. Onset times of the first episode were averaged and recorded for each group. Prodromal signs (lip licking, slit eyes, head shaking, salivation, scratching, clawing, walking backward, sedation, urination, and defecation) were also averaged and recorded.

5-HT3 = target: T1, 5-HT3 (Rattus norvegicus, UniProt P35563); assay: biochemical; assay type: binding, Male Sprague-Dawley rats
T1 sequence (P35563 24-483): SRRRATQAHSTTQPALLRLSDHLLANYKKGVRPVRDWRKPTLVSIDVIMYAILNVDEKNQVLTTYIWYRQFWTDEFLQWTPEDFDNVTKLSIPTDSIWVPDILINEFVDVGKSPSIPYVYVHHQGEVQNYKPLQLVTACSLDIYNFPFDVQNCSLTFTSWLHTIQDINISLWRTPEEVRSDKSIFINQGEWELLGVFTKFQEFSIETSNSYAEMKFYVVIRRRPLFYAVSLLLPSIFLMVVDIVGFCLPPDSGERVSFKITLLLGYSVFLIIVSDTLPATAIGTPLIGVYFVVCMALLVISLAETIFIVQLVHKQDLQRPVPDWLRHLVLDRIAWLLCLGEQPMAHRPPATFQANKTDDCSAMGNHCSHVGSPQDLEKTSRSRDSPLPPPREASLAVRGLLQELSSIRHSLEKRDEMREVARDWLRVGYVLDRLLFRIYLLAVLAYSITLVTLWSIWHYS
Description: A number of compounds in accordance with the present invention were tested for their 5-HT3 and D2 binding affinities in accord with the following procedures.
Male Sprague-Dawley rats (175-220 g) were sacrificed by decapitation and their brains removed rapidly. The entorhinal cortex was used for the 5-HT3 (5-hydroxytryptamine) binding assay and the remainder of the brain, minus the brain stem and cerebellum, was used for the D2 (dopamine) binding assay. The entorhinal cortex was harvested and prepared on the day of the assay.
The entorhinal cortex was homogenized in 20 volumes of cold 50 mM HEPES buffer, pH 7.4, while the remaining brain tissue was homogenized in 20 volumes of cold 50 mM Tris, pH 7.4. The homogenates were centrifuged at 4800×g for 15 minutes at 5° C. and the supernatants decanted. Pellets were resuspended in the original volume of HEPES or Tris. Homogenates were centrifuged and the supernatants decanted. Pellets were resuspended in the same volume of HEPES or Tris and incubated at 37° C. for 45 minutes to remove endogenous neurotransmitters. Homogenates were centrifuged and the supernatants were decanted. Pellets for D2 assays were stored at -50° C. until the day of the assay. The pellets for the 5-HT3 assay (entorhinal cortex) were resuspended in the appropriate amount of HEPES buffer and used promptly. Modifications of published assays for [^3 H]GR65630 (Kilpatrick et al., Nature: 330, 746-748 (1987)) and [^3 H]raclopride (Dewar et al., J. Pharmacol. Exp. Ther.: 250, 696-706 (1989) and Lidow et al., Proc. Natl. Acad. Sci. USA: 86, 6412-6416 (1989)) were used for the 5-HT3 and D2 binding assays, respectively.
Briefly, 0.25 ml of homogenate was incubated with either 0.2 nM of [^3 H]GR65630 or 1.0 nM of [^3 H]raclopride in a final volume of 0.5 ml. D2 binding also requires sodium chloride and potassium chloride (120 mM and 5 mM, final concentration, respectively). In the 5-HT3 assay, non-specific binding was defined in the presence of 100 uM quipazine. In the D2 assay, non-specific binding was defined in the presence of 100 uM of (+/-) sulpiride. Both assays were incubated at room temperature; [^3 H]GR65630 for 40 minutes and [^3 H]raclopride for 60 minutes. Test compounds (0.1 ml) were added to incubates where appropriate. Bound ligand was separated from free ligand by filtration and quantified using liquid scintillation spectrophotometry. IC50 values were calculate for all test compounds.

[1] = 0.1 mg/kg i.v., 30 minutes after cisplatin 10 mg/kg i.v., percent reduction of emetic episodes vs controls, four hours
[2] = 30 minutes after cisplatin 10 mg/kg i.v.
[3] = 0.2 nM [3H]GR65630, rat entorhinal cortex, 40 minutes, room temperature, read-out: 5-HT3 IC50

| Structure (SMILES) | inhibition in vivo at 0.1 mg/kg (Ferret; [1]) [%] | ED50 (Ferret; [2]) [mg/kg] | IC50 (5-HT3; [3]) [nM] | inhibition in vivo at 0.1 mg/kg (Ferret) [%] | IC50 (5-HT3) [nM] |
| --- | --- | --- | --- | --- | --- |
| CN1Cc2nc[nH]c2C[C@H]1C(=O)Nc1ccc(F)c(F)c1F [Compd 35] | 20 | 0.19 | 160 |  |  |
| COc1ccccc1NC(=O)[C@H]1Cc2[nH]cnc2CN1C [Compd 3] | 9 | 2.08 | 47.6 |  |  |
| CN1Cc2nc[nH]c2C[C@@H]1C(=O)Nc1ccccc1O [Compd 1] | 73 | 0.063 | 10.9 |  |  |
| CN1Cc2nc[nH]c2C[C@H]1C(=O)Nc1cc(O)ccc1O [Compd 40, (S)-6-(2,5-dihydroxyphenylaminocarbonyl)-5-methyl-4,5,6,7-tetrahydroimidazo[4,5-c]pyridine dihydrobromide] | 0 |  | 45.9 |  |  |
| CN1Cc2nc[nH]c2C[C@@H]1C(=O)Nc1cccc2nsnc12 [Compd 21] | 24 | 0.39 | 1.98 |  |  |
| CN1Cc2nc[nH]c2C[C@H]1C(=O)Nc1ccccc1Oc1ccccc1.Cl.Cl [Compd 27, (S)-5-methyl-6-(2-phenoxyphenylaminocarbonyl)-4,5,6,7-tetrahydroimidazo[4,5-c]pyridine dihydrochloride] | 72 | 0.031 | 6.92 |  |  |
| CN1Cc2nc[nH]c2C[C@H]1C(=O)Nc1ccccc1Cl [Compd 37] | 42 | 0.065 | 26.7 |  |  |
| CN1Cc2nc[nH]c2C[C@H]1C(=O)Nc1ccccc1Oc1cccc(F)c1 [Compd 45] | 67 | 0.042 | 7.09 |  |  |
| CN1Cc2nc[nH]c2C[C@H]1C(=O)c1ccccc1 [Compd 38] |  |  |  | 30 | 48.4 |
| COc1ccccc1NC(=O)[C@@H]1Cc2[nH]cnc2CN1 [Compd 14, (S)-6-(2-methoxyphenyl)aminocarbonyl-4,5,6,7-tetrahydroimidazo[4,5-c]pyridine] | 48 | 0.062 | 8.53 |  |  |
| COc1ccccc1C(=O)[C@@H]1Cc2[nH]cnc2CN1C [Compd 43] |  |  |  | 41 | 2380 |
| CN1Cc2nc[nH]c2C[C@H]1C(=O)Nc1ccccc1O [Compd 15, (S)-6-(2-hydroxyphenylaminocarbonyl)-5-methyl-4,5,6,7-tetrahydroimidazo[4,5-c]pyridine] | 99 | 0.007 | 62.4 |  |  |
